Measurements reported in patent US9063123B2, “Transgenic mice expressing human toll-like receptor 8” (Dynavax Technologies Corporation, priority 2011, dated 2015).

Experiments:
Assay type in all cases: cell-based
[1] = tested on: human monocytes; test: Cytokine production by human monocytes stimulated with TLR7/TLR8 RNA PN (ELISA); conditions: 2×10^5 human monocytes, 20, 100 or 200 μg/mL, 24 hours, compared with PBMCs
Procedure: (§1) PN-based TLR8 ligand stabilized immunomodulatory RNA (5′-M2[…]-/glycerol/-[…]2-5′ (M2=C6-linker); SEQ ID NO:3) and PN-based TLR7 ligand stabilized immunomodulatory RNA (5′-[…]-/glycerol/-[…]-5′ (R=7-deazaguanosine); SEQ ID NO:2) were previously identified (Lan et al., PNAS 104:13750-13755, 2007). The effect of these TLR7— and TLR8-stimulating RNA PN was evaluated by measuring production of IL-6 and TNF-α in human peripheral blood mononuclear cells (PBMCs) and human monocytes (FIG. 2). 5×10^5 PBMCs or 2×10^5 monocytes from healthy human donors were stimulated with 20 μg/mL, 100 μg/mL, or 200 μg/mL of either TLR8 agonist or TLR7 agonist as indicated in FIG. 2. Twenty-four hours later supernatants were assessed for presence of inflammatory cytokines IL-6 and TNF-α by standard ELISA procedure.

[2] = tested on: human peripheral blood mononuclear cells (PBMCs); test: Cytokine production by human PBMCs stimulated with TLR7/TLR8 RNA PN (ELISA); conditions: 5×10^5 human PBMCs, 20, 100 or 200 μg/mL, 24 hours
Procedure: as §1

[3] = tested on: Mouse PBMCs; test: IL-12 and TNF-α production by mouse PBMCs (ELISA); conditions: 5×10^5 cells from 129 wt and TLR7KO mice, 100 μg/ml
Procedure: (§2) The effect of TLR7 and TLR8-stimulating RNA PNs was further evaluated in mouse cells by measuring IL-12 and TNF-α production (FIG. 4). Mouse splenocytes and PBMCs were prepared from 129 wt mice and TLR7KO mice, and 5×10^5 cells were stimulated with 100 μg/ml of either TLR8 or TLR7 agonist as indicated in FIG. 4. IL-12 and TNF-α were measured by ELISA using standard techniques.

[4] = target: T1, human TLR8 expressed from the transgene in TLR8TGCL8 mice (Homo sapiens, UniProt Q9NR97); test: Cytokine production by blood cells from TLR8TGCL8 transgenic mice (ELISA); conditions: 5×10^5 blood cells from TLR8TGCL8 mice vs C57BL/6 WT, 200 or 100 μg/mL, 24 hours
T1 construct: the human BAC carrying TLR8 gene was obtained from the RPCIB-753 BAC library; expressed in transfected cells; host or cells: Blood cells, bone marrow cells and PBMC of hTLR8 transgenic mice, and the whole animals; The mice came from C57BL/6NTac ES cells transfected with the BAC: the Clone 8 germline line and chimeras
T1 sequence (Q9NR97 27-1041): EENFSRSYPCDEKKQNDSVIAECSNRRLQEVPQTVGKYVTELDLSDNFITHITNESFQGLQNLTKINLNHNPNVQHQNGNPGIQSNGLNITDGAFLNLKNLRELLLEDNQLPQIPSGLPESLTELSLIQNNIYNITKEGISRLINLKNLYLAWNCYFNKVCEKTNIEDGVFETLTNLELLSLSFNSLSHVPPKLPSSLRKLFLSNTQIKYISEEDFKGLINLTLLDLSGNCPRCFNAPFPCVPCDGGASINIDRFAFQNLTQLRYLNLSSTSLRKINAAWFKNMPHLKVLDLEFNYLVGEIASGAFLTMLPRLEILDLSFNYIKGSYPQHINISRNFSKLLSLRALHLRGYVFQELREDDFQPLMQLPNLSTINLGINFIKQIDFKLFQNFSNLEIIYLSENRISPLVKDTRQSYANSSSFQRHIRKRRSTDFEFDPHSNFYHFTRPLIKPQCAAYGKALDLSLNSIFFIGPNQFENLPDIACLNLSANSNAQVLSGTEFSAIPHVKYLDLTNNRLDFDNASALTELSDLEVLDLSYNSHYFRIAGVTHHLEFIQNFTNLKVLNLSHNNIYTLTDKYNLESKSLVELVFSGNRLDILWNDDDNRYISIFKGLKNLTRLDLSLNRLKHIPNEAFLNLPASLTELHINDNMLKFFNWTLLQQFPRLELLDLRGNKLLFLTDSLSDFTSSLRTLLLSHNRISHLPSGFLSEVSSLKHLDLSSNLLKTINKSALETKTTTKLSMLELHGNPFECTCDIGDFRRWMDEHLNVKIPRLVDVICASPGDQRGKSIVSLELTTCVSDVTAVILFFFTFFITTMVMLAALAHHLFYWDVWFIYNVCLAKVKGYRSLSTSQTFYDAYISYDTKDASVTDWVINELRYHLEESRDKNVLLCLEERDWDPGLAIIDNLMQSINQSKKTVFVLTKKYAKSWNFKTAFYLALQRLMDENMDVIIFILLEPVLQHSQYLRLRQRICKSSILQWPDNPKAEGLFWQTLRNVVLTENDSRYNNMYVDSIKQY
Text: (§3) PN-based TLR8 ligand stabilized immunomodulatory RNA (5′-M2[…]-/glycerol/-[…]2-5′ (M2=C6-linker); SEQ ID NO:3) and PN-based TLR7 ligand stabilized immunomodulatory RNA (5′-[…]-/glycerol/-[…]-5′ (R=7-deazaguanosine); SEQ ID NO:2) were previously identified (Lan et al., PNAS 104:13750-13755, 2007). To confirm that human TLR8 expressed from the transgene in TLR8TGCL8 mice is functional and sensitive to stimulation, the effect of TLR8-stimulating RNA PN (SEQ ID NO:3) on cytokine production was assessed. 5×10^5 blood cells from TLR8TGCL8 transgenic mice or C57BL/6 WT animals were stimulated with TLR8 agonist at different concentrations as shown in FIG. 13. 24 hours later supernatants were harvested and assayed for mouse IL-12, TNF-α and IL-6 using standard ELISA procedures. In addition, 5×10^5 bone marrow cells from TLR8TGCL8 transgenic mice or C57BL/6 WT animals were stimulated with TLR8 agonist (SEQ ID NO:3) at different concentrations as shown in FIG. 14. Mouse TNF-α and IL-6 production was assayed in supernatants harvested after 24 hours.

[5] = tested on: human pDCs; test: Cytokine production by human pDCs stimulated with TLR7/TLR8 RNA PN (ELISA); conditions: 1×10^5 human pDCs (negative for TLR8), 100 μg/mL, 24 hours
Procedure: The effect of TLR7 and TLR8-stimulating RNA PN were also evaluated in human pDCs by measuring production of IL-6, TNF-α, and IFN-α. […] 1×10^5 pDCs from healthy human donors were stimulated with 100 μg/mL of either TLR8 agonist or TLR7 agonist (Lan et al., PNAS 104:13750-13755, 2007) or medium alone as indicated in FIG. 3. Twenty-four hours later supernatants were assessed for presence of inflammatory cytokines IL-6, TNF-α and IFN-α by standard ELISA procedure.

[6] = tested on: Mouse splenocytes; test: IL-12 and TNF-α production by mouse splenocytes (ELISA); conditions: 5×10^5 cells from 129 wt and TLR7KO mice, 100 μg/ml
Procedure: as §2

[7] = target: T1, human TLR8 expressed from the transgene in TLR8TGCL8 mice; test: Cytokine production by bone marrow cells from TLR8TGCL8 transgenic mice (ELISA); conditions: 5×10^5 bone marrow cells from TLR8TGCL8 mice vs C57BL/6 WT, 100 or 50 μg/mL, 24 hours
Text: as §3

| Substance | production of IL-6 and TNF-α in monocytes [1] | production of IL-6 and TNF-α in PBMCs [2] | stimulation of mouse PBMCs (IL-12 and TNF-α production) [3] | mouse IL-12, TNF-α and IL-6 production by blood cells [4] | stimulation of pDCs (IL-6, TNF-α and IFN-α production) [5] | stimulation of mouse splenocytes (IL-12 and TNF-α production) [6] | mouse TNF-α and IL-6 production by bone marrow cells [7] |
| --- | --- | --- | --- | --- | --- | --- | --- |
| 5′-URCURCUUCUR-/glycerol/-RUCUUCRUCRU-5′ (R=7-deazaguanosine) [TLR7 agonist] | to a lesser extent | stimulated production |  |  |  |  |  |
| 5′-M2UGCUGCUUGUG-/glycerol/-GUGUUCGUCGUM2-5′ (M2=C6-linker) (NUGCUGCUUGUGNGUGUUCGUCGUN; listed as RNA, chemistry not fully specified) [TLR8 agonist, PN-based TLR8 ligand stabilized immunomodulatory RNA, previously identified (Lan et al., PNAS 2007)] | to a lesser extent | stimulated production | did not stimulate | Only cells from transgenic animals responded | did not stimulate | did not stimulate | Only cells from transgenic animals responded |
